# According to US5221675A, “Aza-spirocyclic compounds that enhance cholinergic neurotransmission” (Abbott Laboratories, priority 1991, dated 1993):
# Tests used:
# [1] = test system: male CD1 mice; assay: Toxicology / side-effects; format: in vivo; conditions: for Fatalities: 0.3, 1.0, 3.0 mg/kg i.p.; for Tolerability: 0.3 and 1.0 mg/kg i.p.
# [2] = test system: DBA mice; assay: Inhibitory (passive) avoidance test, 72 hour retention; format: in vivo, mouse
# Source text: The inhibitory (or sometimes called passive) avoidance (IA) test is a well accepted animal model of learning/memory used to assess the activity of novel muscarinic agonists to enhance cognitive function (Wanibuchi et al., Eur. J. Pharmacol., 1990, 187:479). Animals are placed in the illuminated (12×14×11 cm) portion of a two-chambered box, from which they enter through a guillotine door to the larger (24×13.5×12 cm) dark compartment of the box. Entry to the dark compartment is accompanied by a mild (0.5 mA), brief (2 seconds) footshock. Initial latencies to cross are recorded, with an imposed 60 second ceiling. Following a 72 hour retention interval, animals are returned to the illuminated chamber, and latency to return to the dark compartment is again recorded, with a ceiling of 180 seconds. No footshock is administered on the test day.
# Previous studies have indicated a retention deficit in DBA versus CD1 mice in the 72 hour retention model. Accordingly, adult male DBA mice (n=~15/group) were injected with either the compound of Example 1 or the reference standard RS-86 (0, 0.3, 1.0, or 3.0 mg/kg, i.p.) approximately 45 minutes prior to the training described above. Saline-treated adult male CD1 mice (n=15) served as controls.
# [3] = test system: DBA and C57BL/6 mice; assay: Mouse plus (water) maze, spatial learning; format: in vivo; conditions: 0.3 or 1.0 mg/kg i.p.
# Protocol: The mouse plus maze probes spatial learning processes (Decker and McGaugh, Brain Res. 1989, 477:29). Animals are placed at the terminus of one arm of a four-arm maze submerged in opaque (powdered milk) 25° C. water. Their task is to locate a stationary escape platform hidden at the end of one arm of the maze. The platform remains in the same position across all 4 days of testing. Six daily trials are conducted, during which choice accuracy (correct or incorrect) and latency to escape (maximum=60 seconds) are recorded. Animals failing to escape within 60 seconds are gently guided to the platform, where they are allowed to sit for 20 seconds.
# Accordingly, adult male DBA and C57 mice (n=~10/group) were treated with the compound of Example 1 or RS-86 (0, 0.3, or 1.0 mg/kg, i.p.) approximately 45 minutes prior to 4 consecutive daily water maze sessions. Choice accuracy was assessed daily, with day 4 accuracy serving as the primary measure of learning.
# [4] = target: M2 muscarinic receptor (Rattus norvegicus, UniProt P10980); format: binding; conditions: read-out: Ki @ M2 RECEPTOR; Table 1; [3H]QNB, rat pons-medulla, 25° C., pH 7.4
# [5] = test system: muscarinic receptors; assay: Initial screening at muscarinic receptors; format: binding; conditions: words, on Table 1 data
# [6] = test system: Rat striatal muscarinic receptors; assay: Agonist intrinsic activity: inhibition of forskolin-activated [3H]cAMP in dissociated rat striatum; format: cell-based
# Source text: Rat striatal muscarinic receptors are coupled to the inhibition of the conversion of adenosine triphosphate (ATP) to cyclic adenosine monophosphate (cAMP). […] The ATP stores in dissociated rat striatum were labeled with [^3 H]adenine and [^3 H]-cAMP levels were elevated with 10 um forskolin.
# [7] = target: T1, M1 muscarinic receptor (Rattus norvegicus, UniProt P08482); assay: Competition with [3H]pirenzepine at cortical M1 muscarinic receptors; format: binding; conditions: Table 1; [3H]pirenzepine, rat fronto-parietal cortex, 25° C., pH 7.4; read-out: Ki @ M1 RECEPTOR
# T1 construct: from tissue; host or cells: adult rat fronto-parietal cortex membranes (homogenate)
# T1 sequence (P08482 1-460): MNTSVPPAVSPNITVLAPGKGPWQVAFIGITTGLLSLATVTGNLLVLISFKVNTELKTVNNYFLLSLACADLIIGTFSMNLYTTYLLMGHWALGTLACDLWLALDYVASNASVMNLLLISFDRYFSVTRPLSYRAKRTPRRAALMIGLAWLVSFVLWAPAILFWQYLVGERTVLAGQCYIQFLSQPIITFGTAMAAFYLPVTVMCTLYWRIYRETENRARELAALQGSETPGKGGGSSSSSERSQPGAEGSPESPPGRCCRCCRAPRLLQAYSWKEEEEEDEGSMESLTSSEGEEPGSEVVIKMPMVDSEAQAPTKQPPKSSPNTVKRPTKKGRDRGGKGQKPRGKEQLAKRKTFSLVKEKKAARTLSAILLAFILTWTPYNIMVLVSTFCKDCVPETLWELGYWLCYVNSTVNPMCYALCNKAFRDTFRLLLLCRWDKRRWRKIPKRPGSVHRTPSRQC
# [8] = test system: CD1 mice; assay: Locomotor activity in automated activity monitors; format: in vivo, mouse
# Protocol: Adult male CD1 mice (n=8/group) were injected with the compound of Example 1 or RS-86 (0, 0.3, 1.0, or 3.0 mg/kg, i.p.) approximately 45 minutes prior to placement in automated activity monitors (Omnitech; Columbus, Ohio). These enclosures, measuring 40×40×42 cm, are equipped with a series of photocells and generate measurements of a variety of locomotor activities.
# [9] = rat; cited from earlier work
# [10] = test system: rat brain receptor sites; conditions: cited from earlier work
# [11] = test system: acetylcholine receptors; conditions: chronic administration; cited from earlier work
# [12] = test system: rats; conditions: acutely and chronically administered; cited from earlier work
# [13] = test system: nigro-striatal dopamine system; conditions: chronically administered, after destruction of nigro-striatal dopamine system; cited from earlier work
# [14] = in vivo, cited from earlier work
# [15] = test system: parietotemporal cortex of humans; conditions: cited from earlier work
# [16] = test system: cortical receptors; conditions: cited from earlier work
# [17] = test system: cardiac receptors; conditions: cited from earlier work
# [18] = test system: cholinergic receptors located in the heart and cortical tissues; conditions: words; cited from earlier work
# Chain of M2 muscarinic receptor (P10980 whole entry): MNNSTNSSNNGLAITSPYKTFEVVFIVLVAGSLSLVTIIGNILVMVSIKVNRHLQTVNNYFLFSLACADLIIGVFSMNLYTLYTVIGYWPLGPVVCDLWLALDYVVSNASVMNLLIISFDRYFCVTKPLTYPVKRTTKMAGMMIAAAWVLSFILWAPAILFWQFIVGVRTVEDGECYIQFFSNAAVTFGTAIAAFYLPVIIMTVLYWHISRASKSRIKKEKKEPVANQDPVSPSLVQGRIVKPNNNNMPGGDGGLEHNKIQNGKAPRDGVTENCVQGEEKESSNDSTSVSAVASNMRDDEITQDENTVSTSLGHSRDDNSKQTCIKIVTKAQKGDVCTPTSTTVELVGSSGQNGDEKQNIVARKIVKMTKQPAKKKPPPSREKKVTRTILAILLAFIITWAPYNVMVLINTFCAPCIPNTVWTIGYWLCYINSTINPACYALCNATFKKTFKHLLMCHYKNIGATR
structure (smiles),measurement,setting,value
"CC1OC2(CCN(C)CC2)CN1C=O.O=C(O)C(=O)O (stereo not drawn) [Example 1, 2,8-Dimethyl-1-oxa-3-formyl-3,8-diazaspiro[4,5]decane hydrogen oxalate]",Signs observed,[1]; 3.0 mg/kg i.p.,some dyspnea and a mild decrease in spontaneous activity
same,Fatalities,[1],No fatalities
same,Tolerability,[1],well tolerated
same,Side-effects in general versus RS-86,[1]; compared with RS-86,more benign side-effects
same,Latencies across dose groups,"[2]; 0, 0.3, 1.0, 3.0 mg/kg i.p., DBA mice",latencies were equivalent across all groups
same,72 hour retention deficit of DBA mice,"[2]; 1.0 mg/kg i.p., U=171.5, z=2.04, p<0.05",significant attenuation of the observed retention deficit
same,72 hour retention deficit of DBA mice,"[2]; 3.0 mg/kg i.p., U=172, z=2.0, p<0.05",significant attenuation of the observed retention deficit
same,Enhancement of learning (choice accuracy),[3],"modest, albeit statistically non-significant, enhancement of learning"
same,Performance of DBA mice versus chance level,[3]; from second day of testing,consistently performed above chance levels
same,Ki,[4],30 µM
same,Binding to M1 and M2 muscarinic receptors,[5],binds to both M1 and M2 muscarinic receptors
same,Emax,"[6]; Rattus norvegicus, read-out: INTRINSIC ACTIVITY (% relative to carbacol)",53%
same,Agonist character at central muscarinic receptor,[6]; rat striatum,central muscarinic receptor agonist with partial agonist activity
same,Ki,[7],32 µM
same,Mean horizontal activity counts,"[8]; all doses (0, 0.3, 1.0, 3.0 mg/kg i.p.)",equivalent across all doses
same,Separation of hypoactivity from cognitive enhancement versus RS-86,[8]; compared with RS-86,more favorable separation of hypoactivity from the desired activity of cognitive enhancement
"O=C1NC(=O)C2(CCNCC2)N1c1ccccc1 [1-phenyl-1,3,8-triazaspiro[4,5]decan-2,4-dione]",Metabolite of fluspirilene,[9],"major product of the metabolism of the neuroleptic drug, fluspirilene"
"CC1CCCCN1 (racemic) [(+)isomer of (±)2-methylpiperidine, (+)2-methylpiperidine]",Binding of nicotinic ligand,[10],enhances the binding of nicotinic ligand
CN1CCC[C@H]1c1cccnc1 [nicotine],Effect on affinity of acetylcholine for the receptor,[11],without affecting the affinity of acetylcholine for the receptor
same,Up-regulation of the number of acetylcholine receptors,[11],50-100%
same,Cognitive function,[12],enhance cognitive function in rats
same,Action on neuronal and vascular functions,[13],regenerative/protective action
same,Oral bioavailability,[14]; po,poor oral bioavailability
same,Pharmacokinetics,[14],unfavorable pharmacokinetics
CNC1(C)C2CCC(C2)C1(C)C (stereo not drawn) [mecamylamine],Resting cortical perfusion,[15],reduce resting cortical perfusion
CCN1C(=O)CC2(CCN(C)CC2)C1=O [RS-86],Classic signs of cholinostimulation,[1]; 3.0 mg/kg i.p.,"salivation, lacrimation, urination, defecation, and tremor"
same,Hypothermic response versus similar dose of Example 1,[1]; 3.0 mg/kg i.p.,greater hypothermic response
same,Signs observed,[1]; 3.0 mg/kg i.p.,dyspnea and decreased activity
same,Fatalities,[1],No fatalities
same,Tolerability,[1],well tolerated
same,Animals that completely failed to cross to the dark compartment in training,[2]; 3.0 mg/kg i.p.,nine
same,Training latencies relative to all other groups,"[2]; 3.0 mg/kg i.p., F (4,72)=25.8, p<0.00001",elevated relative to all other groups
same,72 hour retention deficit of untreated DBAs,[2]; RS-86 0.3-3.0 mg/kg i.p.,apparently eliminated the 72 hour retention deficit
same,Water maze performance in DBA or C57 mice,[3],no beneficial effect on water maze performance
same,Agonism at cortical receptors,[16],partial agonist
same,Agonism at cardiac receptors,[17],full agonist
same,Potency and selectivity,[18],poor potency and lack of selectivity
same,Horizontal activity,"[8]; 3.0 mg/kg i.p., F (3,28)=29.17, p<0.00001","profound and significant [F (3,28)=29.17, p<0.00001] reduction in horizontal activity"
same,Activity versus animals dosed with the compound of Example 1,[8]; 0.3 or 1.0 mg/kg i.p.,did not significantly differ
